target: T1, human recombinant, purified wild type His-B-Raf protein kinase (Homo sapiens, UniProt P15056); experiment: B-Raf In Vitro ELISA Assay; assay type: biochemical; conditions: phosphorylation of MEK1 (0.15 μM) by 2.5 nM B-Raf, 10 μM ATP, 1 hour preincubation at 25° C.
T1 construct: His
Procedure: B-Raf In Vitro ELISA Assay
Activity of human recombinant, purified wild type His-B-Raf protein kinase was determined in vitro using an enzyme-linked immunosorbent assay (ELISA) assay format, which measures phosphorylation of the B-Raf substrate, human recombinant, purified His-derived (detagged) MEK1. The reaction utilized 2.5 nM B-Raf, 0.15 μM MEK1 and 10 μM adenosine triphosphate (ATP) in 40 mM N-(2-hydroxyethyl)piperazine-N′-(2-ethanesulfonic acid hemisodium salt (HEPES), 5 mM 1,4-dithio-DL-threitol (DTT), 10 mM MgCl2, 1 mM ethylenediaminetetraacetic acid (EDTA) and 0.2 M NaCl (1×HEPES buffer), with or without compound at various concentrations, in a total reaction volume of 25 μl in 384 well plates. B-Raf and compound were preincubated in 1×HEPES buffer for 1 hour at 25° C. Reactions were initiated with addition of MEK1 and ATP in 1×HEPES buffer and incubated at 25° C. for 50 minutes and reactions stopped by addition of 10 μl 175 mM EDTA (final concentration 50 mM) in 1× HEPES buffer. 5 μl of the assay mix was then diluted 1:20 into 50 mM EDTA in 1×HEPES buffer, transferred to 384 well black high protein binding plates and incubated overnight at 4° C. Plates were washed in tris buffered saline containing 0.1% Tween20 (TBST), blocked with 50 μl Superblock (Pierce) for 1 hour at 25° C., washed in TBST, incubated with 50 μl rabbit polyclonal anti-phospho-MEK antibody (Cell Signaling) diluted 1:1000 in TBS for 2 hours at 25° C., washed with TBST, incubated with 50 μl goat anti-rabbit horseradish peroxidase-linked antibody (Cell Signaling) diluted 1:2000 in TBS for 1 hour at 25° C. and washed with TBST. 50 μl of fluorogenic peroxidase substrate (Quantablu—Pierce) was added and following incubation for 45-60 minutes, 50 μl QuantabluSTOP (Pierce) was added. Blue fluorescent product was detected at excitation 325 and emission 420 using a TECAN Ultra plate reader. Data was graphed and IC50s calculated using Excel Fit (Microsoft).

T1 sequence (P15056 whole entry): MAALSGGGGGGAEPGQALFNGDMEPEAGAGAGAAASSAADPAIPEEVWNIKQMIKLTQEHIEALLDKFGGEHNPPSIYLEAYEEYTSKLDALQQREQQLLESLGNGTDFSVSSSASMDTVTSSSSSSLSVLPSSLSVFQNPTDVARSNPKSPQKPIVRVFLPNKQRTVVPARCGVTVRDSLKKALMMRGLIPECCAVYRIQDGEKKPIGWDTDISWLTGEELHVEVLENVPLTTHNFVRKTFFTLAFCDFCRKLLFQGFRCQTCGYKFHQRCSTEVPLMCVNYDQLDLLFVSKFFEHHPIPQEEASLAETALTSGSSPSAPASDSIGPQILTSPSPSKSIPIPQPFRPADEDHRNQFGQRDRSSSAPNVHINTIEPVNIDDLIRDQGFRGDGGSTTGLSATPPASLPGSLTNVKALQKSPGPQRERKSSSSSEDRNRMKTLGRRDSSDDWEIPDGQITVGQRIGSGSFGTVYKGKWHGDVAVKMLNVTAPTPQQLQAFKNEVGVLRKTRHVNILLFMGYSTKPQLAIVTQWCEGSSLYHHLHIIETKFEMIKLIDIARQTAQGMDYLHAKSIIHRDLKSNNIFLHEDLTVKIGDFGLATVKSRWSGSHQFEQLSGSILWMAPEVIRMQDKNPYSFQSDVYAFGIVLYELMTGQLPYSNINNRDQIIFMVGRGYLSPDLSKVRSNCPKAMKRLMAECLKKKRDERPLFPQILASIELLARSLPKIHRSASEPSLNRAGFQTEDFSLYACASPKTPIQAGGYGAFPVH

IC50	SMILES
5700 nM	Cc1cc(C(=O)Nc2cc(NC(=O)c3cccc(C(C)(C)C#N)c3)ccc2C)nc(N2CCCCC2)n1 [Example 1, N^1-[3-(1-Cyano-1-methylethyl)benzoyl]-N^3-[2-(piperidin-1-yl)-4-methylpyrimidin-6-ylcarbonyl]-4-methylbenzene-1,3-diamine]
600 nM	Cc1cc(C(=O)Nc2cc(NC(=O)c3cccc(C(C)(C)C#N)c3)ccc2C)nc(N2CCOCC2)n1 [Example 7, N^1-[3-(1-Cyano-1-methylethyl)benzoyl]-N^3-[2-(morpholino)-4-methylpyrimidin-6-ylcarbonyl]-4-methylbenzene-1,3-diamine]
800 nM	Cc1cc(C(=O)Nc2cc(NC(=O)c3cccc(C(F)(F)F)c3)ccc2C)nc(N2CCN(C)CC2)n1 [Example 49, N^1-(3-Trifluoromethylbenzoyl)-N^3-[2-(4-methylpiperazin-1-yl)-4-methylpyrimidin-6-ylcarbonyl]-4-methylbenzene-1,3-diamine]
